Data: patent EP4104902B1, “COMPOUNDS AND M[…] SAME” (priority 2020, dated 2021)

Each compound was assayed on recombinant rabies virus 1088 strain expressing Gaussia Luciferase (GLuc) (1088/GLuc). Conditions: read-out: Anti-rabies activity.
Type: cell-based

SMILES	IC50
CCCCCCNC(=O)[C@@]12C[C@@H]3CN(CCc4ccccc4)[C@@H]([C@@H]3CN1)[C@H]2Cc1ccccc1 (relative stereo) [IF-602]	10 to 30 µM
O=C(NCc1ccc(O)cc1)[C@]12NC[C@@H]3C[C@H]1CN(Cc1ccc(F)cc1)[C@H]2[C@@H]3Cc1ccccc1 (relative stereo) [IB-583]	10 to 30 µM
CC(C)CNC(=O)C12NCC3CC1CN(CC1CCCCC1)C2C3CCC(=O)O (stereo not shown) [IB-510]	10 to 30 µM
CC(C)CC[C@@H]1[C@@H]2CN[C@@]3(C(=O)NCCCNC(=N)N)[C@@H](C2)CN(Cc2cccc4ccccc24)[C@@H]13 (relative stereo) [IB-353]	< 5 µM
O=C(NCc1ccc(F)cc1)[C@@]12C[C@@H]3CN(CCO)[C@@H]([C@@H]3CN1)[C@H]2CCc1ccccc1 (relative stereo) [IF-516]	< 5 µM
O=C(NCCO)[C@]12NC[C@@H]3C[C@H]1CN(Cc1ccccc1)[C@H]2[C@@H]3Cc1ccccc1 (relative stereo) [IB-676]	10 to 30 µM
O=C(NCCc1ccccc1)[C@@]12C[C@@H]3CN(Cc4ccc(F)cc4)[C@@H]([C@@H]3CN1)[C@H]2Cc1ccccc1 (relative stereo) [IF-586]	10 to 30 µM
CC(C)CCNC(=O)[C@@]12C[C@@H]3CN(Cc4ccc(F)cc4)[C@@H]([C@@H]3CN1)[C@H]2Cc1ccccc1 (relative stereo) [IF-584]	< 5 µM
Cc1ccc(CNC(=O)[C@@]23C[C@@H]4CN(CCC(C)C)[C@@H]([C@@H]4C=N2)[C@H]3Cc2ccccc2)cc1 (relative stereo) [IIF-328]	< 5 µM
CC(C)CC1C2CNC3(C(=O)NCc4cccc(O)c4)C(C2)CN(Cc2ccc(N(C)C)cc2)C13 (stereo not shown) [IB-891]	10 to 30 µM
CC(C)CCC1C2CNC3(C(=O)NCc4cccc5ccccc45)C(C2)CN(CCC(=O)O)C13 (stereo not shown) [IB-398]	10 to 30 µM
CC(C)CC1C2C=NC3(C(=O)NCc4ccccc4)C(C2)CN(Cc2ccc(Cl)cc2)C13 (stereo not shown) [IIB-83]	< 5 µM
CC(C)CCNC(=O)[C@@]12C[C@@H]3CN(CC4CCCCC4)[C@@H]([C@@H]3CN1)[C@H]2Cc1ccccc1 (relative stereo) [IF-658]	< 5 µM
CC(C)CCNC(=O)C12NCC3CC1CN(Cc1ccc(O)cc1)C2C3CC(C)C (stereo not shown) [IB-739]	10 to 30 µM
N=C(N)NCCCN1C[C@@H]2C[C@H]3CN[C@]2(C(=O)NCc2ccccc2)[C@@H]1[C@@H]3Cc1cccc2ccccc12 (relative stereo) [IB-300]	10 to 30 µM
CC(C)CC1C2C3CNC1(C(=O)NCc1ccc(F)cc1)CC3CN2Cc1ccccc1 (stereo not shown) [IF-807]	< 5 µM
O=C(NCc1cccc2ccccc12)[C@@]12C[C@@H]3CN(CCO)[C@@H]([C@@H]3CN1)[C@H]2Cc1ccc(O)cc1 (relative stereo) [IF-543]	10 to 30 µM
CC(C)CCN1C[C@@H]2C[C@H]3CN[C@]2(C(=O)NCc2ccc(O)cc2)[C@@H]1[C@@H]3CCc1ccccc1 (relative stereo) [IB-576]	10 to 30 µM
N=C(N)NCCC[C@@H]1[C@@H]2[C@@H]3CN[C@@]1(C(=O)NCc1cccc4ccccc14)C[C@@H]3CN2Cc1ccccc1 (relative stereo) [IF-284]	10 to 30 µM
CC(C)CN1C[C@@H]2C[C@H]3CN[C@]2(C(=O)NCc2ccccc2)[C@@H]1[C@@H]3Cc1ccc(O)cc1 (relative stereo) [IB-783]	10 to 30 µM
Cc1ccc(CNC(=O)[C@@]23C[C@@H]4CN(CC(C)C)[C@@H]([C@@H]4C=N2)[C@H]3Cc2ccccc2)cc1 (relative stereo) [IIF-16]	10 to 30 µM

SMILES	IC50
COc1ccc(CNC(=O)[C@@]23C[C@@H]4CN(CC(C)C)[C@@H]([C@@H]4C=N2)[C@H]3CCc2ccccc2)cc1 (relative stereo) [IIF-332]	< 5 µM
COc1ccc(CN2CC3CC4CNC3(C(=O)NCc3ccccc3)C2C4CC(C)C)cc1 (stereo not shown) [IB-866]	5 to 10 µM
CCOc1ccc(CN2CC3CC4CNC3(C(=O)NCc3ccccc3)C2C4CC(C)C)cc1 (stereo not shown) [IB-878]	10 to 30 µM
CC(C)CC[C@@H]1[C@@H]2[C@@H]3CN[C@@]1(C(=O)NCc1ccc(F)cc1)C[C@@H]3CN2CC(N)=O (relative stereo) [IF-95]	10 to 30 µM
CC(C)CNC(=O)[C@@]12C[C@@H]3CN(Cc4cccc5ccccc45)[C@@H]([C@@H]3CN1)[C@H]2CCCNC(=N)N (relative stereo) [IF-235]	10 to 30 µM
O=C(NCc1ccccc1)[C@@]12C[C@@H]3CN(Cc4ccc(F)cc4)[C@@H]([C@@H]3CN1)[C@H]2Cc1ccccc1 (relative stereo) [IF-649]	< 5 µM
O=C(NCCc1ccccc1)[C@@]12C[C@@H]3CN(CC4CCCCC4)[C@@H]([C@@H]3CN1)[C@H]2Cc1cccc2ccccc12 (relative stereo) [IF-718]	< 5 µM
CC(C)CC1C2CNC3(C(=O)NCCC(N)=O)C(C2)CN(CCc2ccccc2)C13 (stereo not shown) [IB-708]	< 5 µM
CCCCCCNC(=O)[C@@]12C[C@@H]3CN(CCC(C)C)[C@@H]([C@@H]3CN1)[C@H]2Cc1ccc(O)cc1 (relative stereo) [IF-583]	< 5 µM
CC(C)CNC(=O)[C@]12NC[C@@H]3C[C@H]1CN(Cc1ccccc1)[C@H]2[C@@H]3CC(C)C (relative stereo) [IB-4]	10 to 30 µM
CC(C)CNC(=O)[C@@]12C[C@@H]3CN(Cc4ccccc4)[C@@H]([C@@H]3CN1)[C@H]2Cc1ccccc1 (relative stereo) [IF-6]	10 to 30 µM
CCCCCCNC(=O)[C@@]12C[C@@H]3CN(Cc4ccccc4)[C@@H]([C@@H]3CN1)[C@H]2CCCNC(=N)N (relative stereo) [IF-285]	10 to 30 µM
CC(C)CCC1C2C3CNC1(C(=O)NCc1cccc4ccccc14)CC3CN2CCC(=O)O (stereo not shown) [IF-422]	10 to 30 µM
CC(C)C[C@@H]1[C@@H]2CN[C@@]3(C(=O)NCc4ccc(O)cc4)[C@@H](C2)CN(CC2CCCCC2)[C@@H]13 (relative stereo) [IB-581]	10 to 30 µM
NC(=O)CCNC(=O)C12CC3CN(CCc4ccccc4)C(C3CN1)C2CC(N)=O (stereo not shown) [IF-219]	10 to 30 µM
CC(C)CC[C@@H]1[C@@H]2[C@@H]3CN[C@@]1(C(=O)NCc1ccc(O)cc1)C[C@@H]3CN2CCc1ccccc1 (relative stereo) [IF-468]	10 to 30 µM
NC(=O)CCNC(=O)[C@]12NC[C@@H]3C[C@H]1CN(Cc1ccccc1)[C@H]2[C@@H]3CCc1ccccc1 (relative stereo) [IB-535]	10 to 30 µM
NC(=O)CN1C[C@@H]2C[C@H]3CN[C@]2(C(=O)NCc2cccc4ccccc24)[C@@H]1[C@@H]3Cc1ccccc1 (relative stereo) [IB-82]	10 to 30 µM
CC(C)CC1C2CNC3(C(=O)NCCc4ccccc4)C(C2)CN(CC(C)C)C13 (stereo not shown) [IB-495]	< 5 µM
N=C(N)NCCCNC(=O)[C@]12NC[C@@H]3C[C@H]1CN(CCc1ccccc1)[C@H]2[C@@H]3Cc1cccc2ccccc12 (relative stereo) [IB-347]	10 to 30 µM
CCN1CC2CC3CN(Cc4ccc(C)cc4)C(C2CC(C)C)C31C(=O)NCc1ccccc1 (stereo not shown) [IB-880]	< 5 µM

SMILES	IC50
CCCCCCNC(=O)[C@@]12C[C@@H]3CN(Cc4ccccc4)[C@@H]([C@@H]3CN1)[C@H]2Cc1ccc(O)cc1 (relative stereo) [IF-692]	< 5 µM
CC(C)CC[C@@H]1[C@@H]2CN[C@@]3(C(=O)NCCO)[C@@H](C2)CN(Cc2ccc(F)cc2)[C@@H]13 (relative stereo) [IB-668]	< 5 µM
CC(C)C[C@@H]1[C@@H]2CN[C@@]3(C(=O)NC(C)C)[C@@H](C2)CN(CCCNC(=N)N)[C@@H]13 (relative stereo) [IB-176]	10 to 30 µM
CC(C)CNC(=O)[C@]12NC[C@@H]3C[C@H]1CN(CCc1ccccc1)[C@H]2[C@@H]3Cc1ccccc1 (relative stereo) [IB-759]	< 5 µM
CC(C)CC1C2CNC3(C(=O)NCc4ccccc4)C(C2)CN(Cc2ccc(C(C)(C)C)cc2)C13 (stereo not shown) [IB-874]	5 to 10 µM
NC(=O)C[C@@H]1[C@@H]2[C@@H]3CN[C@@]1(C(=O)NCCc1ccccc1)C[C@@H]3CN2CC1CCCCC1 (relative stereo) [IF-251]	10 to 30 µM
CC(C)CNC(=O)[C@@]12C[C@@H]3CN(Cc4ccc(F)cc4)[C@@H]([C@@H]3CN1)[C@H]2CC(N)=O (relative stereo) [IF-262]	< 5 µM
CC(C)CC[C@@H]1[C@@H]2[C@@H]3CN[C@@]1(C(=O)NC(C)C)C[C@@H]3CN2Cc1ccc(O)cc1 (relative stereo) [IF-503]	< 5 µM
CC(C)CCNC(=O)[C@@]12C[C@@H]3CN(Cc4ccccc4)[C@@H]([C@@H]3CN1)[C@H]2Cc1ccccc1 (relative stereo) [IF-665]	< 5 µM
CC(C)CN1C[C@@H]2C[C@H]3CN[C@]2(C(=O)NCCO)[C@@H]1[C@@H]3Cc1cccc2ccccc12 (relative stereo) [IB-687]	10 to 30 µM
O=C(O)CCN1CC2CC3CNC2(C(=O)NCc2ccc(F)cc2)C1C3Cc1ccccc1 (stereo not shown) [IB-394]	10 to 30 µM
CC(C)CC[C@@H]1[C@@H]2CN[C@@]3(C(=O)NCCO)[C@@H](C2)CN(CCc2ccccc2)[C@@H]13 (relative stereo) [IB-461]	10 to 30 µM
CC(C)CCN1C[C@@H]2C[C@H]3CN[C@]2(C(=O)NCc2ccccc2)[C@@H]1[C@@H]3Cc1ccccc1 (relative stereo) [IB-9]	10 to 30 µM
CC(C)CNC(=O)[C@@]12C[C@@H]3CN(CC(C)C)[C@@H]([C@@H]3CN1)[C@H]2CCc1ccccc1 (relative stereo) [IF-679]	< 5 µM
CC(C)CNC(=O)C12NCC3CC1CN(CCc1ccccc1)C2C3CCC(=O)O (stereo not shown) [IB-508]	10 to 30 µM
O=C(NCCc1ccccc1)[C@@]12C[C@@H]3CN(CCO)[C@@H]([C@@H]3CN1)[C@H]2Cc1cccc2ccccc12 (relative stereo) [IF-610]	10 to 30 µM
CC(C)CCN1CC2CC3CNC2(C(=O)NCc2ccc(F)cc2)C1C3Cc1ccc(O)cc1 (stereo not shown) [IB-481]	< 5 µM
CC(C)CCN1CC2CC3CNC2(C(=O)NCc2ccccc2)C1C3CC(C)C (stereo not shown) [IB-876]	10 to 30 µM
CC(C)CNC(=O)[C@]12NC[C@@H]3C[C@H]1CN(CC1CCCCC1)[C@H]2[C@@H]3Cc1ccc(O)cc1 (relative stereo) [IB-770]	10 to 30 µM
CCCCCCNC(=O)[C@]12NC[C@@H]3C[C@H]1CN(CCC(C)C)[C@H]2[C@@H]3CC(C)C (relative stereo) [IB-551]	< 5 µM
CC(C)CNC(=O)[C@]12NC[C@@H]3C[C@H]1CN(Cc1ccccc1)[C@H]2[C@@H]3CCCNC(=N)N (relative stereo) [IB-198]	10 to 30 µM

Same assay, conditions: read-out: IC50

SMILES	IC50
Cc1ccc(CNC(=O)[C@@]23C[C@@H]4CN(CC(C)C)[C@@H]([C@@H]4C=N2)[C@H]3Cc2ccccc2)cc1 (relative stereo) [IIF-16]	28.7 µM
CC(C)CNC(=O)[C@]12NC[C@@H]3C[C@H]1CN(Cc1ccccc1)[C@H]2[C@@H]3CC(C)C (relative stereo) [IB-4]	19.2 µM
CC(C)CNC(=O)[C@@]12C[C@@H]3CN(Cc4ccccc4)[C@@H]([C@@H]3CN1)[C@H]2Cc1ccccc1 (relative stereo) [IF-6]	16.3 µM
CC(C)CCN1C[C@@H]2C[C@H]3CN[C@]2(C(=O)NCc2ccccc2)[C@@H]1[C@@H]3Cc1ccccc1 (relative stereo) [IB-9]	17 µM
